One may read the inhibition as the relative decrease from the control value, in per cent.

T1 sequence (Q9UGL1 whole entry): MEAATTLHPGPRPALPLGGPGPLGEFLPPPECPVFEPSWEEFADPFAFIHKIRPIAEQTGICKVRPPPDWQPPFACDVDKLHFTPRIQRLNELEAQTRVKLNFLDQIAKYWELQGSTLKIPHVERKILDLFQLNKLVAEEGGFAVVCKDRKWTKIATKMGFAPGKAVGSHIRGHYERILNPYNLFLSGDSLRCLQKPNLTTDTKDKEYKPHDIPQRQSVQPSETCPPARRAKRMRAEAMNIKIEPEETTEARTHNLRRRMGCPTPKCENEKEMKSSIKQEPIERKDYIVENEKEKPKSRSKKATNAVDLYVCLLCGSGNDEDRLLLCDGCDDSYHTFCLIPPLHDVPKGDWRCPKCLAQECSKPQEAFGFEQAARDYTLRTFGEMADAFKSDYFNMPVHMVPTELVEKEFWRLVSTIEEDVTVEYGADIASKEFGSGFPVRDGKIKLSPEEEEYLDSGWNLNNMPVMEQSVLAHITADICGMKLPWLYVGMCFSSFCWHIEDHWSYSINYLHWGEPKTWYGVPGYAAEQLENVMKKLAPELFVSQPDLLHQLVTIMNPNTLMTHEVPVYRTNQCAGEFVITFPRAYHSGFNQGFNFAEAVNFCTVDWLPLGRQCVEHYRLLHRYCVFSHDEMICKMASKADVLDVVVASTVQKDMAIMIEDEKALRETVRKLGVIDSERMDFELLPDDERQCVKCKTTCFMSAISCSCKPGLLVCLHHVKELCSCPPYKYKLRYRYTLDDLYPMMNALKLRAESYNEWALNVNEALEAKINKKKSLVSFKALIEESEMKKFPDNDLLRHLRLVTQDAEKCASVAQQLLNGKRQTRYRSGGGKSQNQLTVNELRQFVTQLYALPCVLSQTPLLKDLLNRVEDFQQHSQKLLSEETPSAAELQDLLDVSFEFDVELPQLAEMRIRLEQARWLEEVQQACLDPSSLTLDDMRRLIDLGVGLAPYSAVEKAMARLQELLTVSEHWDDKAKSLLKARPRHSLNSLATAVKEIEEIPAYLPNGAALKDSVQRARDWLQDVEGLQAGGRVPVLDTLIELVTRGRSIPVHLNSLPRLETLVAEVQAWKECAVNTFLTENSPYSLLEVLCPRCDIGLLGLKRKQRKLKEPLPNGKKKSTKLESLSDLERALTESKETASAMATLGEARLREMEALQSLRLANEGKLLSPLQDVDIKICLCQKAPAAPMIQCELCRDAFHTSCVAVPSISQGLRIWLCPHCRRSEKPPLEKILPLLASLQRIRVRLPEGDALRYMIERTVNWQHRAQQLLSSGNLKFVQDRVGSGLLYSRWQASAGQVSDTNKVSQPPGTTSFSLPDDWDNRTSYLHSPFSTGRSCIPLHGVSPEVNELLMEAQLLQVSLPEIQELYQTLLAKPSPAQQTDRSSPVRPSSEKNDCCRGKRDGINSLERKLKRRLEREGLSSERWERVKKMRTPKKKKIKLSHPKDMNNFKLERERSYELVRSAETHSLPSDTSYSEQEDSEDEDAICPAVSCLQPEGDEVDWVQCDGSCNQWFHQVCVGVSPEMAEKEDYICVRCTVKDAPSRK

This assay addresses T1, Recombinant human JARID1B/KDM5B (Homo sapiens, UniProt Q9UGL1).
T1 construct: purchased Active Motif 31432; host or cells: Sf9 insect cells
Description: LANCE Ultra TR-FRET demethylase assay with FLAG-tagged JARID1B. The note with it: 100 nM compound; 500 nM biotinylated H3K4me3 peptide substrate. It is filed as biochemical. In short, it runs like this:
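Sf9-expressed N-FLAG full-length JARID1B (10–30 nM) preincubated 5 min with compound at 20, 1 or 0.1 uM (1% DMSO), then 500 nM biotin-H3K4me3 peptide, 500 uM 2-OG, 25 uM Fe(II), 2 mM ascorbate added; 30 min at room temperature in Hepes pH 7.5. H3K4me2/1 product read by TR-FRET 665/590 ratio.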
On the technique in general: Time-resolved FRET reads energy transfer from a long-lived donor to a nearby acceptor.
With `CC(C)N1CCC(CNCc2nccc3c(=O)[nH]c(COc4ccc(F)c(Cl)c4)nc23)CC1` [Example 168, 2-((3-chloro-4-fluorophenoxy)methyl)-8-((((1-isopropylpiperidin-4-yl)methyl)amino)methyl)pyrido[3,4-d]pyrimidin-4(3H)-one], the inhibition at 0.1 µM was greater than 50%. The figure for `O=c1[nH]c(COc2ccc(F)c(Cl)c2)nc2c(CNCC3CCN(C4CCCC4)CC3)nccc12` [Example 169, 2-((3-chloro-4-fluorophenoxy)methyl)-8-((((1-cyclopentylpiperidin-4-yl)methyl)amino)methyl)pyrido[3,4-d]pyrimidin-4(3H)-one] is greater than 50%; for `O=c1[nH]c(COc2ccc(F)c(Cl)c2)nc2c(CNCc3ccccn3)nccc12` [Example 170, 2-((3-chloro-4-fluorophenoxy)methyl)-8-(((pyridin-2-ylmethyl)amino)methyl)pyrido[3,4-d]pyrimidin-4(3H)-one] it is 20 to 50%. As for `O=c1[nH]c(COc2ccc(F)c(Cl)c2)nc2c(CNCc3ccco3)nccc12` [Example 171, 2-((3-chloro-4-fluorophenoxy)methyl)-8-(((furan-2-ylmethyl)amino)methyl)pyrido[3,4-d]pyrimidin-4(3H)-one], the inhibition at 0.1 µM lay within 20 to 50%.

Regarding `O=c1[nH]c(COc2ccc(F)c(Cl)c2)nc2c(CNCc3cccnc3)nccc12` [Example 172, 2-((3-chloro-4-fluorophenoxy)methyl)-8-(((pyridin-3-ylmethyl)amino)methyl)pyrido[3,4-d]pyrimidin-4(3H)-one], the inhibition at 0.1 µM is greater than 50%.

Turning to `O=c1[nH]c(COc2ccc(F)c(Cl)c2)nc2c(CNCc3ccncc3)nccc12` [Example 173, 2-((3-chloro-4-fluorophenoxy)methyl)-8-(((pyridin-4-ylmethyl)amino)methyl)pyrido[3,4-d]pyrimidin-4(3H)-one], the inhibition at 0.1 µM is 20 to 50%. The figure for `CN(C)C(=O)c1ccc(CNCc2nccc3c(=O)[nH]c(COc4ccc(F)c(Cl)c4)nc23)o1` [Example 174, 5-((((2-((3-chloro-4-fluorophenoxy)methyl)-4-oxo-3,4-dihydropyrido[3,4-d]pyrimidin-8-yl)methyl)amino)methyl)-N,N-dimethylfuran-2-carboxamide] is 20 to 50%; for `Cc1nccn1CCNCc1nccc2c(=O)[nH]c(COc3ccc(F)c(Cl)c3)nc12` [Example 175, 2-((3-chloro-4-fluorophenoxy)methyl)-8-(((2-(2-methyl-1H-imidazol-1-yl)ethyl)amino)methyl)pyrido[3,4-d]pyrimidin-4(3H)-one] it is 20 to 50%; for `O=c1[nH]c(COc2ccc(F)c(Cl)c2)nc2c(CNCCc3cccs3)nccc12` [Example 176, 2-((3-chloro-4-fluorophenoxy)methyl)-8-(((2-(thiophen-2-yl)ethyl)amino)methyl)pyrido[3,4-d]pyrimidin-4(3H)-one] it is 20 to 50%. With `Cc1cc(CNCc2nccc3c(=O)[nH]c(COc4ccc(F)c(Cl)c4)nc23)on1` [Example 177, 2-((3-chloro-4-fluorophenoxy)methyl)-8-((((3-methylisoxazol-5-yl)methyl)amino)methyl)pyrido[3,4-d]pyrimidin-4(3H)-one], the inhibition at 0.1 µM fell in the range of 20 to 50%. The figure for `CN1CCOC(CNCc2nccc3c(=O)[nH]c(COc4ccc(F)c(Cl)c4)nc23)C1` (stereo not shown) [Example 178, 2-((3-chloro-4-fluorophenoxy)methyl)-8-((((4-methylmorpholin-2-yl)methyl)amino)methyl)pyrido[3,4-d]pyrimidin-4(3H)-one] is 20 to 50%. As to `O=c1[nH]c(COc2ccc(F)c(Cl)c2)nc2c(CNCc3ncco3)nccc12` [Example 179, 2-((3-chloro-4-fluorophenoxy)methyl)-8-(((oxazol-2-ylmethyl)amino)methyl)pyrido[3,4-d]pyrimidin-4(3H)-one], the inhibition at 0.1 µM lay within 20 to 50%. Then `O=c1[nH]c(COc2ccc(F)c(Cl)c2)nc2c(CNCc3ncccn3)nccc12` [Example 180, 2-((3-chloro-4-fluorophenoxy)methyl)-8-(((pyrimidin-2-ylmethyl)amino)methyl)pyrido[3,4-d]pyrimidin-4(3H)-one], with 20 to 50%. On to `O=c1[nH]c(COc2ccc(F)c(Cl)c2)nc2c(CNCc3cccs3)nccc12` [Example 181, 2-((3-chloro-4-fluorophenoxy)methyl)-8-(((thiophen-2-ylmethyl)amino)methyl)pyrido[3,4-d]pyrimidin-4(3H)-one], for which the inhibition at 0.1 µM lay in the range of 20 to 50%. Take `O=c1[nH]c(COc2ccc(F)c(Cl)c2)nc2c(CNCc3ccnc(Cl)c3)nccc12` [Example 182, 2-((3-chloro-4-fluorophenoxy)methyl)-8-((((2-chloropyridin-4-yl)methyl)amino)methyl)pyrido[3,4-d]pyrimidin-4(3H)-one]: the inhibition at 0.1 µM was in the range of 20 to 50%. Consider `Cc1cc(C)n(CCNCc2nccc3c(=O)[nH]c(COc4ccc(F)c(Cl)c4)nc23)n1` [Example 183, 2-((3-chloro-4-fluorophenoxy)methyl)-8-(((2-(3,5-dimethyl-1H-pyrazol-1-yl)ethyl)amino)methyl)pyrido[3,4-d]pyrimidin-4(3H)-one], for which the inhibition at 0.1 µM was less than 20%.

For the compound `Cc1cccc(CCNCc2nccc3c(=O)[nH]c(COc4ccc(F)c(Cl)c4)nc23)n1` [Example 184, 2-((3-chloro-4-fluorophenoxy)methyl)-8-(((2-(6-methylpyridin-2-yl)ethyl)amino)methyl)pyrido[3,4-d]pyrimidin-4(3H)-one], the inhibition at 0.1 µM is less than 20%.

For `O=C1c2cccnc2CN1CCCNCc1nccc2c(=O)[nH]c(COc3ccc(F)c(Cl)c3)nc12` [Example 185, 2-((3-chloro-4-fluorophenoxy)methyl)-8-(((3-(5-oxo-5,7-dihydro-6H-pyrrolo[3,4-b]pyridin-6-yl)propyl)amino)methyl)pyrido[3,4-d]pyrimidin-4(3H)-one], the inhibition at 0.1 µM is 20 to 50%. The figure for `O=c1[nH]c(COc2ccc(F)c(Cl)c2)nc2c(CNCCc3ccccn3)nccc12` [Example 186, 2-((3-chloro-4-fluorophenoxy)methyl)-8-(((2-(pyridin-2-yl)ethyl)amino)methyl)pyrido[3,4-d]pyrimidin-4(3H)-one] is 20 to 50%. The figure for `O=c1[nH]c(COc2ccc(F)c(Cl)c2)nc2c(CNC[C@@H]3CNCCO3)nccc12` [Example 187, (R)-2-((3-chloro-4-fluorophenoxy)methyl)-8-(((morpholin-2-ylmethyl)amino)methyl)pyrido[3,4-d]pyrimidin-4(3H)-one] is greater than 50%. The figure for `O=c1[nH]c(COc2ccc(F)c(Cl)c2)nc2c(CNCC3CCN(CCO)CC3)nccc12` [Example 188, 2-((3-chloro-4-fluorophenoxy)methyl)-8-((((1-(2-hydroxyethyl)piperidin-4-yl)methyl)amino)methyl)pyrido[3,4-d]pyrimidin-4(3H)-one] is greater than 50%; for `COCCN1CCC(CNCc2nccc3c(=O)[nH]c(COc4ccc(F)c(Cl)c4)nc23)CC1` [Example 189, 2-((3-chloro-4-fluorophenoxy)methyl)-8-((((1-(2-methoxyethyl)piperidin-4-yl)methyl)amino)methyl)pyrido[3,4-d]pyrimidin-4(3H)-one] it is greater than 50%.

For `O=c1[nH]c(COc2ccc(F)c(Cl)c2)nc2c(CNC[C@H]3CNCCO3)nccc12` [Example 190, (S)-2-((3-chloro-4-fluorophenoxy)methyl)-8-(((morpholin-2-ylmethyl)amino)methyl)pyrido[3,4-d]pyrimidin-4(3H)-one], the inhibition at 0.1 µM is greater than 50%. The figure for `O=c1[nH]c(C2CCCC2)nc2c(CNCC3CCNCC3)nccc12` [Example 191, 2-cyclopentyl-8-(((piperidin-4-ylmethyl)amino)methyl)pyrido[3,4-d]pyrimidin-4(3H)-one] is less than 20%; for `CN1CCC(CNCc2nccc3c(=O)[nH]c(C4CCCC4)nc23)CC1` [Example 192, 2-cyclopentyl-8-((((1-methylpiperidin-4-yl)methyl)amino)methyl)pyrido[3,4-d]pyrimidin-4(3H)-one] it is less than 20%. Consider `O=c1[nH]c(C2CCCO2)nc2c(CNCC3CCNCC3)nccc12` (stereo not shown) [Example 193, 8-(((piperidin-4-ylmethyl)amino)methyl)-2-(tetrahydrofuran-2-yl)pyrido[3,4-d]pyrimidin-4(3H)-one], for which the inhibition at 0.1 µM is less than 20%. As for `CN1CCC(CNCc2nccc3c(=O)[nH]c(C4CCCO4)nc23)CC1` (stereo not shown) [Example 194, 8-((((1-methylpiperidin-4-yl)methyl)amino)methyl)-2-(tetrahydrofuran-2-yl)pyrido[3,4-d]pyrimidin-4(3H)-one], the inhibition at 0.1 µM was less than 20%. The figure for `O=c1[nH]c(C2CCOC2)nc2c(CNCC3CCNCC3)nccc12` (stereo not shown) [Example 195, 8-(((piperidin-4-ylmethyl)amino)methyl)-2-(tetrahydrofuran-3-yl)pyrido[3,4-d]pyrimidin-4(3H)-one] is less than 20%. The figure for `CN1CCC(CNCc2nccc3c(=O)[nH]c(C4CCOC4)nc23)CC1` (stereo not shown) [Example 196, 8-((((1-methylpiperidin-4-yl)methyl)amino)methyl)-2-(tetrahydrofuran-3-yl)pyrido[3,4-d]pyrimidin-4(3H)-one] is less than 20%; for `O=c1[nH]c(C2Cc3ccccc3O2)nc2c(CNCC3CCNCC3)nccc12` (stereo not shown) [Example 197, 2-(2,3-dihydrobenzofuran-2-yl)-8-(((piperidin-4-ylmethyl)amino)methyl)pyrido[3,4-d]pyrimidin-4(3H)-one] it is 20 to 50%; for `CN1CCC(CNCc2nccc3c(=O)[nH]c(C4Cc5ccccc5O4)nc23)CC1` (stereo not shown) [Example 198, 2-(2,3-dihydrobenzofuran-2-yl)-8-((((1-methylpiperidin-4-yl)methyl)amino)methyl)pyrido[3,4-d]pyrimidin-4(3H)-one] it is 20 to 50%.

(Values after US9834550B2, “Pyridopyrimidinone compounds for modulating the catalytic activity of histone lysine demethylases (KDMs)” (Dong-A Socio Holdings Co., Ltd., priority 2014, dated 2017).)
